The text below walks through data of PMC3236199, “Development of Derivatives of 3, 3′-Diindolylmethane as Potent Leishmania donovani Bi-Subunit Topoisomerase IB Poisons” (PLoS ONE, 2011).

Test [1] concerns L. donovani topoisomerase I. In words: Immunoband depletion assay, topoisomerase I. Particulars: 20 µM, 6 h incubation, promastigotes. In kind it is cell-based, Leishmania donovani. On the procedure: Leishmania cells (3×10^7) were cultured in absence and presence of the drugs. Nuclear fractions were isolated as described. Briefly, cells were suspended in hypotonic buffer (10 mM Tris-HCl, pH 7.5, 1 mM EDTA, 0.1 mM EGTA, 1 mM PMSF, 1 mM benzamidine hydrochloride and 5 mM DTT) and homogenized. The homogenate was centrifuged for 10 min at 10,000 g. The pellets were washed and used as the source of nuclear fraction. Thereafter, the nuclear fractions were lysed with 1% SDS and subjected to SDS-PAGE (10%). The proteins were electrophoretically transferred to nitrocellulose membranes and immumobloting of immobilized proteins were carried out using a rabbit polyclonal antibody raised against LdTOP1S for topoisomerase I and ATPase domain of L. donovani topoisomerase II [8].
We have reported earlier that DIM induces topoisomerase I and not topoisomerase II-mediated cleavable complex formation in L. donovani. To investigate the ability of DIM derivatives to induce in vivo covalent complex formation between topoisomerase I and DNA in the Leishmania parasites we performed the immunoband depletion experiments with L. donovani promastigotes. Nuclear fractions were prepared from untreated as well as drug-treated promastigotes and subjected to SDS-PAGE. If topoisomerase I can form a covalent complex with genomic DNA inside the cells, then topoisomerase I-DNA cleavable complex cannot enter into the gel. […] The presence of topoisomerase I was detected by immunoblotting as described in ‘Materials and Methods’. It was observed that the immunoband of topoisomerase I disappeared in presence of 20 µM of DIM, DPDIM, DMDIM and DMODIM for 6 h incubation respectively (lanes 2–5). […] It should be mentioned here that topoisomerase I of Leishmania is a heterodimer and the catalytic site (SKXXY) is present in the small subunit of enzyme (LdTOP1S), which is involved in the formation of topoisomerase I-DNA covalent complex. So we have used the antibody raised against the small subunit of L. donovani topoisomerase I to study the immunoband depletion assay.
Figure 6 DIM-derivatives induce in vivo formation of topoisomerase-DNA cleavable complex within the cells. Stabilization of topoisomerase-I mediated cleavable complex was determined by immunoband depletion assay. Top panel: Immunoband depletion of L. donovani topoisomerase I, using an antibody raised against […]. Leishmanial cells were treated with 0.2% DMSO alone (lane 1), 20 µM each of DIM (lane 2), DPDIM (lane 3), DMDIM (lane 4) and DMODIM (lane 5) respectively. Lanes 6–9, preincubation with 20 µM DHBA before treatment with DIM, DPDIM, DMDIM and DMODIM respectively. Bottom panel: β-tubulin loading control.

For test [2], the system named is DIM resistant parasites (LdDR50). In words: DNA fragmentation assay (cell death detection ELISA), DIM resistant. Type of test: cell-based, Leishmania donovani. To be noted: 20 µM. The procedure: Leishmanial cells were cultured in 24-well plates and treated with 20 µM of DIM, DPDIM, DMDIM and DMODIM for different times. Samples were collected at requisite time points and subjected to measurement of DNA fragmentations. Cytoplasmic histone-associated DNA fragments (mononucleosome and oligonucleosomes) formed during apoptosis were detected using a cell death detection ELISA kit (Roche Biochemicals) by spectrophotometric measurement of microtiter plates in a Thermo MULTISKAN EX plate reader at 405 nm. The relative percentages (with respect to samples treated with micrococcal nuclease and normalized to percentage values) were plotted as units of time or drug concentrations as described previously.
The internucleosomal DNA digestion by an endogenous nuclease (genomic DNA fragmentation) is considered as a hallmark of apoptotic cell death. […] To investigate whether these derivatives also do the same, we performed the DNA fragmentation assay with wild type L. donovani AG83 promastigotes and DIM resistant parasites (Fig. 4) by ELISA as described in Materials and Methods. […] DNA fragmentation increased to 85%, 89%, 81% and 71% at 8 h of treatment in wild type parasites. The DIM resistant parasites (LdDR50) have much less effect in DNA fragmentation (13% at 6 h and 17% at 8 h) when treated with 20 µM DIM. On the other hand the extents of DNA fragmentations were 63%, 51% and 40% at 6 h treatment with DPDIM, DMDIM and DMODIM respectively. The extent of fragmentation increased to 82%, 74% and 65% after treatment for 8 h with the drugs as mentioned above.
Figure 4 DIM derivatives-induced fragmentation of genomic DNA in wild type and DIM resistant parasites. Relative percentage of DNA fragmentation measured by cell death detection ELISA kit in L. donovani promastigotes treated with DIM, DPDIM, DMDIM and DMODIM. The experiments were performed three times and representative data from one of these experiments as means ± SD.

Turning to `c1ccc2c(Cc3c[nH]c4ccccc34)c[nH]c2c1` [DIM, 3, 3′-diindolyl methane, reference compound], the “immunoband of topoisomerase I” value in test [1] is given as “disappeared”. Further, the “fragmentation of DNA” value in test [2] (6 h) is given as 13%; in test [2] (8 h) it was 17%.
On the same counts, the results for `Cc1[nH]c2ccccc2c1Cc1c(C)[nH]c2ccccc12` [DMDIM, 2,2′-dimethyl 3,3′-diindolyl methane] are “disappeared”, 51% and 74%.
For `COc1ccc2[nH]cc(Cc3c[nH]c4ccc(OC)cc34)c2c1` [DMODIM, 5,5′-dimethoxy 3,3′-diindolyl methane], in that order: “disappeared”, 40% and 65%.
On the same counts, the results for `c1ccc(-c2[nH]c3ccccc3c2Cc2c(-c3ccccc3)[nH]c3ccccc23)cc1` [DPDIM, 2,2′-diphenyl 3,3′-diindolyl methane] are “disappeared”, 63% and 82%.
